In PubChem BioAssay (NCI):
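Cells were grown in 96-well plates and exposed to each compound for 48 hours at five concentrations; endpoints were interpolated linearly between bracketing concentrations, or set to the highest concentration if not reached. GI50 marks 50% less growth. Definition used: TGI = concentration required for complete inhibition of growth.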

What was measured:
Test in all cases: NCI tumour cell line growth inhibition, 48 h
K-562 leukemia = test system: K-562 leukemia
MDA-MB-231 breast = test system: MDA-MB-231 breast
SW-620 colon = test system: SW-620 colon
SK-MEL-5 melanoma = test system: SK-MEL-5 melanoma
HS 578T breast = test system: HS 578T breast
SK-MEL-28 melanoma = test system: SK-MEL-28 melanoma
NCI-H522 lung = test system: NCI-H522 lung
TK-10 renal = test system: TK-10 renal
NCI-H23 lung = test system: NCI-H23 lung
OVCAR-5 ovarian = test system: OVCAR-5 ovarian

SMILES	GI50 (K-562 leukemia) [µM]	TGI (K-562 leukemia) [µM]	GI50 (MDA-MB-231 breast) [µM]	TGI (MDA-MB-231 breast) [µM]	GI50 (SW-620 colon) [µM]	TGI (SW-620 colon) [µM]	GI50 (SK-MEL-5 melanoma) [µM]	TGI (SK-MEL-5 melanoma) [µM]	GI50 (HS 578T breast) [µM]	TGI (HS 578T breast) [µM]	GI50 (SK-MEL-28 melanoma) [µM]	TGI (SK-MEL-28 melanoma) [µM]	GI50 (NCI-H522 lung) [µM]	TGI (NCI-H522 lung) [µM]	GI50 (TK-10 renal) [µM]	TGI (TK-10 renal) [µM]	GI50 (NCI-H23 lung) [µM]	TGI (NCI-H23 lung) [µM]	GI50 (OVCAR-5 ovarian) [µM]	TGI (OVCAR-5 ovarian) [µM]
CCOc1ccn(-c2ccc(F)cc2)c(=O)c1C(=O)Nc1ccc(Oc2ccnc(N)c2Cl)c(F)c1	4.42	> 100	6.33	23.9	5.01	38.4	9.99	25.5	3.7	30.6	6.7	59.1	12.3	69.5	15.1	55.2	10.4	> 100	12.9	67
CCOC(=O)C(C#N)C1=CC(=O)C(=O)c2ccc(O)cc21 (stereo unspecified)		> 100		> 100		> 100		> 100		> 100		> 100		> 100		> 100		58		> 100
C/C=C1/CC(C)C(C)(O)C(=O)OCC2C(O)CN3CCC(OC1=O)C23 (stereo unspecified)		> 100		> 100		> 100		> 100		> 100				> 100		> 100		> 100		> 100
CC1NC(=O)C2=C1C(=O)NC(=O)C2 (stereo unspecified)	> 100	> 100	> 100	> 100	> 100	> 100	> 100	> 100	> 100	> 100			> 100	> 100	> 100	> 100	> 100	> 100	> 100	> 100
O=C(NCC1CCCO1)c1ccc(NC2=C(Cl)C(=O)N(Cc3ccccc3)C2=O)cc1 (stereo unspecified)	11.1	34.3	16.8	46.6	5.95	42.8	14.6	33.3	22.1	65.3	18.6	41.1	1.92	10.8			17.2	34.3	16.6	32.8
Nc1ccccc1C(=O)CCC1C(=O)NC(=S)NC1=O		> 100				> 100		> 100		> 100		> 100		> 100		> 100		> 100		> 100
O=C1c2ccccc2-c2c1c1ccccc1c(=O)n2CCCNCCn1c2c(c3ccccc3c1=O)C(=O)c1ccccc1-2	19.2	42.3	2	9.25	2.23	> 100			16.5	64.6	16	38	14.6	48.1	3.8	15.8	2.25	11.6	14.9	28.1
CCOP(=O)(OCC)C(C(=O)OC)C(=O)C(=O)Nc1cccc(O)c1 (stereo unspecified)				> 100		> 100		> 100		> 100		> 100		> 100		> 100		> 100		> 100
